± gives the expanded uncertainty stated by the source.
Assay: xn = mol fraction of the nth substance listed
Settings: 101 kPa, Liquid; for speed of sound: Sing-around technique in a fixed-path interferometer; for mass density: Vibrating tube method; for viscosity: Capillary tube (Ostwald / Ubbelohde) method

NCCN [ethane-1,2-diamine] + CCCCCCCCO
Settings	mass density, 293.15 K [kg/m3]	mass density, 298.15 K [kg/m3]	speed of sound, 293.15 K [m/s]	speed of sound, 298.15 K [m/s]	viscosity, 298.15 K [mPa·s]	viscosity, 303.15 K [mPa·s]
x1 = 0.0595	828.135 ± 0.14	824.621 ± 0.14	1373.2 ± 0.9	1356.2 ± 0.9	–	–
x1 = 0.0596	–	–	–	–	6.934 ± 0.04	5.792 ± 0.035
x1 = 0.1021	830.247 ± 0.14	826.683 ± 0.14	1379.6 ± 0.9	1362.6 ± 0.9	6.834 ± 0.04	5.694 ± 0.035
x1 = 0.143	832.248 ± 0.14	828.632 ± 0.14	1386.6 ± 0.9	1369.4 ± 0.9	6.713 ± 0.04	5.569 ± 0.034
x1 = 0.2012	835.047 ± 0.15	831.36 ± 0.15	1396.5 ± 0.9	1379.3 ± 0.9	6.457 ± 0.039	5.331 ± 0.034
x1 = 0.2633	838.043 ± 0.15	834.276 ± 0.15	1407.3 ± 1	1389.9 ± 1	6.099 ± 0.038	5.041 ± 0.032
x1 = 0.3122	839.349 ± 0.16	835.547 ± 0.15	1412.6 ± 1	1397.8 ± 1	5.734 ± 0.036	4.75 ± 0.031
x1 = 0.4113	844.656 ± 0.17	840.743 ± 0.16	1433.8 ± 1	1415.9 ± 1	4.957 ± 0.033	4.144 ± 0.028
x1 = 0.4919	848.413 ± 0.17	844.426 ± 0.17	1450.2 ± 1	1432 ± 1	4.251 ± 0.029	3.595 ± 0.024
x1 = 0.5973	854.134 ± 0.18	850.038 ± 0.18	1475.6 ± 1.1	1457.1 ± 1.1	3.406 ± 0.024	2.917 ± 0.02
x1 = 0.7019	861.054 ± 0.2	856.833 ± 0.19	1508.3 ± 1.1	1489 ± 1.1	2.707 ± 0.019	2.395 ± 0.017
x1 = 0.7938	868.882 ± 0.21	864.539 ± 0.2	1546.3 ± 1.2	1526.5 ± 1.2	2.214 ± 0.017	1.956 ± 0.015
x1 = 0.8436	874.136 ± 0.21	869.72 ± 0.21	1573.2 ± 1.2	1551.8 ± 1.2	1.985 ± 0.015	1.748 ± 0.014
x1 = 0.8941	881.269 ± 0.22	876.764 ± 0.22	1609.4 ± 1.3	1582.4 ± 1.2	1.751 ± 0.014	1.532 ± 0.013
x1 = 0.9546	889.526 ± 0.23	884.925 ± 0.23	1651.7 ± 1.3	1627.9 ± 1.3	1.54 ± 0.013	1.34 ± 0.012

— the NIST ThermoML archive (doi:10.1016/j.jct.2012.01.022)
